In patent US20250230184A1, “COMPOUND, PHARMACEUTICAL COMPOSITION, KIT FOR CAPPED RNA TRANSCRIPT, AND METHOD FOR IN VITRO” (Industrial Technology Research Institute, priority 2023, published 2025):

How the values were obtained:
T7 enzyme = T7 enzyme (Escherichia phage T7, UniProt P00573); test: Evaluation of mRNA yield by in vitro transcription (IVT) with cap analogs; assay type: biochemical; conditions: input DNA 5 μg
Method: mRNA was produced using in vitro transcription (IVT) technology with cap analogs of Compound (25), (26) and (33) to (35) of the disclosure, as well as the TriLink CleanCap cap analog (product number #N-7113). First, the DNA template plasmid required for IVT was prepared, followed by an enzymatic reaction using T7 enzyme to synthesize mRNA.

40-nt mRNAs = test: Capping efficiency evaluation (3) using IP-RP-UPLC, 40-nt mRNAs from IVT; assay type: biochemical; conditions: 40-nt mRNAs by IVT with T7 enzyme, UV 260 nm
Method: mRNA was produced using in vitro transcription (IVT) technology with cap analogs of Compound (25), (33) to (35) of the disclosure herein, as well as the TriLink CleanCap cap analog (product number #N-7113). The DNA template used in this process consisted of 40-nucleotide (nt) fragments, and mRNA was synthesized through an enzymatic reaction using T7 enzyme to produce 40-nt mRNAs.
Nuclease-free water was added to the lyophilized carrier RNA to obtain an RNA stock solution (with concentration of 2 μg/L). Deionized water (0.1 mL) and RNA stock solution (10 μL) were then mixed with the 40-nt mRNAs obtained by aforementioned cap analogs to obtain the samples.
Next, 10 μL of each sample was injected into a column and analyzed using ion-pair reversed-phase ultra-performance liquid chromatography (IP-RP UPLC) (45 minutes) according to the solution gradient listed in Table 7. The absorbance value of UV 260 nm was monitored, and the capping efficiency (%) was evaluated based on the obtained results, as shown in Table 8. The column used for the analysis was an oligonucleotide column (Acquity Premier Oligonucleotide C18, manufactured and sold by Waters Corp). A water-based buffer solution (triethylammonium acetate buffer, pH 7.0, concentration 100 mM) was used as Solution A, while an acetonitrile (ACN)-based buffer solution (a mixture of Solution A and acetonitrile in a 3:1 volume ratio) was used as Solution B.

[1] = system: HEK293 (RIG-I+)-IFNβ-fLuc cells; test: Cell immunogenicity evaluation (luciferase reporter); assay type: cell-based; conditions: luciferase mRNA capped with the cap analog, 200 ng per well, 5 hours, compared with Jena-ARCA
Method: HEK293 (RIG-I^+)-IFNβ-fLuc cells were seeded at 1×10^4 cells per well in a 96-well culture plate and cultured for 24 hours for attachment. Each well was treated with transfection reagent (catalog #Lipofectamine MessengerMax, commercially available from Thermo Fisher, 0.15 μL per well) and samples (200 ng per well). The cells were incubated in a 37° C. incubator with 5% carbon dioxide for 5 hours. Next, 100 µL of signal-activating fluorescence detection reagent (One-Glo Luciferase) was added to each well and incubated at room temperature for 5 minutes to measure luciferase activity. Next, 180 μL of the reaction mixture was pipetted, and the fluorescence values were recorded using a microplate reader (GloMax Microplate Reader).

HEK293 cells = test: Transfection efficiency evaluation (luciferase activity); assay type: cell-based; conditions: luciferase mRNA capped with the cap analog, 50 ng per well, 5 hours, compared with Jena-ARCA
Method: Nuclease-free water was added to the lyophilized carrier RNA to obtain an RNA stock solution (with concentration of 2 μg/L). Next, deionized water (0.1 mL) and RNA stock solution (10 μL) were mixed with cap analogs (compound (3), compounds (25), (33) to (35), and Jena-ARCA capping analog (number #NU-855L, commercially available from Jena Bioscience)) individually to obtain the samples.
HEK293 cells were seeded at 4×10^4 cells per well in a 96-well culture plate and cultured for 24 hours for attachment. Next, each well was treated with transfection reagent (catalog #Lipofectamine MessengerMax, commercially available from Thermo Fisher, 0.3 μL per well) and samples (50 ng per well). The cells were incubated in a 37° C. incubator with 5% carbon dioxide for 5 hours. Subsequently, 100 μL of signal-activating fluorescence detection reagent (One-Glo Luciferase) was added to each well and incubated at room temperature for 5 minutes to measure luciferase activity. Then, 100 μL of the reaction mixture was pipetted and the fluorescence values were recorded using a microplate reader (GloMax Microplate Reader).

carrier RNA [2] = test: Capping efficiency evaluation (2) using IP-RP-UPLC (1); conditions: UV260
Method: Nuclease-free water was added into the lyophilized carrier RNA to obtain an RNA stock solution (with a concentration of 2 μg/L). Next, deionized water (0.1 mL) and RNA stock solution (10 μL) were mixed with cap analogs (compound (3) and Jena-ARCA cap analog (product number #NU-855L, commercially available from Jena Bioscience)) individually to obtain the samples.
Next, the sample (10 μL) was injected into a column to perform ion-pair reverse-phase ultra-performance liquid chromatography (IP-RP UPLC) using the solution gradient outlined in Table 6 (45 minutes). The absorbance at the UV260 wavelength was monitored. The column used was an oligonucleotide column (Acquity Premier Oligonucleotide C18, manufactured and sold by Waters Corp). A water-based buffer solution (triethylamine acetate buffer, pH 7.0, concentration 100 mM) was used as Solution A, and an acetonitrile (ACN)-based buffer solution (composed of Solution A and ACN in a 3:1 volume ratio) was used as Solution B.

carrier RNA [3] = test: Capping efficiency evaluation (1) using anti-cap antibody; conditions: Anti-7-methylguanosine (m7G)-Cap mAb, compared with commercially available ARCA
Method: Nuclease-free water was added into the lyophilized carrier RNA to obtain an RNA stock solution (with a concentration of 2 μg/L). Next, the RNA stock solution with various cap analogs (Compound (3) and Jena-ARCA cap analog, with trade number #NU-855L, commercially available from Jena Bioscience) was heated individually at 80° C. for 2 minutes, and then cooled at 0° C. for 5 minutes. Next, the result was placed on a nitrocellulose membrane and exposed to UV illumination to obtain a crosslinked RNA sample.
Then, 2.5% skim milk solution was added to block the nitrocellulose membrane with crosslinked RNA sampleat room temperature for 30 minutes. Thereafter, the primary antibody (Anti-7-methylguanosine (m7G)-Cap mAb) was diluted with the 2.5% skim milk solution and incubated at room temperature for 1 hour. Next, the sample was washed three times with TBST buffer (10 minutes each time). The result was reacted with chemiluminescent reagent (Femto) for 1-3 minutes. Finally, an image analysis of the result was performed via a chemiluminescent imaging system (Fujifilm LAS 4000).

Sequence of T7 enzyme (P00573 whole entry): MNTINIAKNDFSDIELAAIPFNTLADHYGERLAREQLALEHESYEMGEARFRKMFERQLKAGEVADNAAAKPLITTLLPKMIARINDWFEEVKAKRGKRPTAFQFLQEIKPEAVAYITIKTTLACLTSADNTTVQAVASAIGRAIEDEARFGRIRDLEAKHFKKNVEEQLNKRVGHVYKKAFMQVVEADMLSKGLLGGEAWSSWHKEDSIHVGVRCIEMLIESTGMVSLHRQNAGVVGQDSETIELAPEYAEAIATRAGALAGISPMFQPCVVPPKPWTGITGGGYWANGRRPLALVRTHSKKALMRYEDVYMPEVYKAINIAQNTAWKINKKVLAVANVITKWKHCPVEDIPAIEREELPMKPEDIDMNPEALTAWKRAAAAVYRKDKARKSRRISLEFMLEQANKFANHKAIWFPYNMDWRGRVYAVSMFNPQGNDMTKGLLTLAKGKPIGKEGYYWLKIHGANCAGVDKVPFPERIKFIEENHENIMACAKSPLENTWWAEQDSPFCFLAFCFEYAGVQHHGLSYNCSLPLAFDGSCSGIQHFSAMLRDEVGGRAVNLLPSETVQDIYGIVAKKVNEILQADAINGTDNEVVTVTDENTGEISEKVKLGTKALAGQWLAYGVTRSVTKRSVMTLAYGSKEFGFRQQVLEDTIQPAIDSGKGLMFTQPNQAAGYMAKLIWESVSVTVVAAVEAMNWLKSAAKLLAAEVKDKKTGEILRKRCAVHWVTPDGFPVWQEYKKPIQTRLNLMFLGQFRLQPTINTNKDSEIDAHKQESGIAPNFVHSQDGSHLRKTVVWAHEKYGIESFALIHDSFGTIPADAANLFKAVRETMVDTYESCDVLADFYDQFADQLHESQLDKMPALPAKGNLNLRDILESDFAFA

SMILES	mRNA (T7 enzyme) [µg]	Capping efficiency (%) (40-nt mRNAs)	immune response (luciferase activity) [1]	nucleic acid translation and protein expression (luciferase activity) (HEK293 cells)	capping efficiency (carrier RNA [2])	capping capability (chemiluminescent image analysis) (carrier RNA [3])
COC1[C@@H](COP(=O)(O)OP(=O)(O)OP(=O)(O)OC[C@]23CN(S(C)(=O)=O)[C@@H](C2OP(=O)(O)OC[C@H]2O[C@@H](n4cnc5c(=O)[nH]c(N)nc54)[C@@H](O)C2O)[C@H](n2cnc4c(N)ncnc42)O3)O[C@@H](n2c[n+](C)c3c(=O)[nH]c(N)nc32)[C@H]1O (stereo partly shown) [Compound (26)]	95	–	–	–	–	–
CNc1ncnc2c1ncn2[C@@H]1O[C@H](COP(=O)(O)OP(=O)(O)OP(=O)(O)OC[C@@]23CN(S(C)(=O)=O)C([C@H](n4c[n+](C)c5c(=O)[nH]c(N)nc54)O2)[C@H]3OC)C(OP(=O)(O)OC[C@H]2O[C@@H](n3cnc4c(=O)[nH]c(N)nc43)[C@@H](O)C2O)[C@@H]1OC (stereo partly shown) [Compound (35)]	138	81.4	–	–	–	–
CO[C@@H]1C2OC[C@]1(COP(=O)(O)OP(=O)(O)OP(=O)(O)OC[C@H]1O[C@@H](n3cnc4c(N)ncnc43)[C@@H](OC)C1OP(=O)(O)OC[C@H]1O[C@@H](n3cnc4c(=O)[nH]c(N)nc43)[C@@H](O)C1O)O[C@H]2n1c[n+](C)c2c(=O)[nH]c(N)nc21 (stereo partly shown) [Compound (33)]	134	100	–	–	–	–
COC1[C@@H]2OC[C@]1(COP(=O)(O)OP(=O)(O)OP(=O)(O)OC[C@H]1O[C@@H](n3cnc4c(=O)[nH]c(N)nc43)[C@@H](O)C1O)O[C@H]2n1c[n+](C)c2c(=O)[nH]c(N)nc21 (stereo partly shown) [Compound (3)]	–	–	lower immune response	superior nucleic acid translation and protein expression	approximately 60.8%	comparable to that of commercially available ARCA
CO[C@H]1[C@@H](O)[C@H](n2c[n+](C)c3c(=O)[nH]c(N)nc32)O[C@@H]1COP(=O)(O)OP(=O)(O)OP(=O)(O)OC[C@H]1O[C@@H](n2cnc3c(=O)[nH]c(N)nc32)[C@H](O)[C@@H]1O [Jena-ARCA, reference compound]	–	–	–	–	approximately 63%	–
CO[C@@H]1C(O)[C@H](n2c[n+](C)c3c(=O)[nH]c(N)nc32)O[C@@H]1COP(=O)(O)OP(=O)(O)OP(=O)(O)OC[C@]12CN(C)[C@@H](C1OP(=O)(O)OC[C@H]1O[C@@H](n3cnc4c(=O)[nH]c(N)nc43)[C@@H](O)C1O)[C@H](n1cnc3c(N)ncnc31)O2 (stereo partly shown) [Compound (25)]	167	71.3	–	superior nucleic acid translation and protein expression	–	–
